From US8507477B2, “3- and 6-quinolines with N-attached heterocyclic CGRP receptor antagonists” (Merck, Sharp & Dohme, Corp., priority 2008, dated 2013)
pKi: −log10 of the molar value.

Biological target: recombinant human CL receptor/RAMP1 (Homo sapiens (Human), UniProt O60894+Q16602)
Test: Recombinant receptor binding assay (125I-hCGRP displacement, membranes of HEK 293 cells)
Settings: membranes of HEK 293 cells expressing human CL receptor/RAMP1
Description: RECOMBINANT RECEPTOR: Human CL receptor (Genbank accession number L76380) was subcloned into the expression vector pIREShyg2 (BD Biosciences Clontech) as a 5′NheI and 3′PmeI fragment. Human RAMP1 (Genbank accession number AJ001014) was subcloned into the expression vector pIRESpuro2 (BD Biosciences Clontech) as a 5′NheI and 3′NotI fragment. HEK 293 cells (human embryonic kidney cells; ATCC #CRL-1573) were cultured in DMEM with 4.5 g/L glucose, 1 mM sodium pyruvate and 2 mM glutamine supplemented with 10% fetal bovine serum (FBS), 100 units/mL penicillin and 100 μg/mL streptomycin, and maintained at 37° C. and 95% humidity. Cells were subcultured by treatment with 0.25% trypsin with 0.1% EDTA in HBSS. Stable cell line generation was accomplished by co-transfecting 10 μg of DNA with 30 μg Lipofectamine 2000 (Invitrogen) in 75 cm^2 flasks. CL receptor and RAMP1 expression constructs were co-transfected in equal amounts. Twenty-four hours after transfection the cells were diluted and selective medium (growth medium+300 μg/mL hygromycin and 1 μg/mL puromycin) was added the following day. A clonal cell line was generated by single cell deposition utilizing a FACS Vantage SE (Becton Dickinson). Growth medium was adjusted to 150 μg/mL hygromycin and 0.5 μg/mL puromycin for cell propagation.
RECOMBINANT RECEPTOR BINDING ASSAY: Cells expressing recombinant human CL receptor/RAMP1 were washed with PBS and harvested in harvest buffer containing 50 mM HEPES, 1 mM EDTA and Complete protease inhibitors (Roche). The cell suspension was disrupted with a laboratory homogenizer and centrifuged at 48,000 g to isolate membranes. The pellets were resuspended in harvest buffer plus 250 mM sucrose and stored at −70° C. For binding assays, 20 μg of membranes were incubated in 1 ml binding buffer (10 mM HEPES, pH 7.4, 5 mM MgCl2, and 0.2% BSA) for 3 hours at room temperature containing […] ^125I-hCGRP (GE Healthcare) and antagonist. The assay was terminated by filtration through 96-well GFB glass fiber filter plates (PerkinElmer) that had been blocked with 0.05% polyethyleneimine. The filters were washed 3 times with ice-cold assay buffer (10 mM HEPES, pH 7.4 and 5 mM MgCl2). Scintillation fluid was added and the plates were counted on a Topcount (Packard). Non-specific binding was determined and the data analysis was carried out with the apparent dissociation constant (Ki) determined by using a non-linear least squares fitting the bound CPM data to the equation below:
[formula] Where Y is observed CPM bound, Ymax is total bound counts, Ymin is non specific bound counts, (Ymax−Ymin) is specific bound counts, % Imax is the maximum percent inhibition, % I min is the minimum percent inhibition, radiolabel is the probe, and the Kd is the apparent dissociation constant for the radioligand for the receptor as determined by Hot saturation experiments.

Sequence of recombinant human CL receptor/RAMP1 (Q16602 23-461): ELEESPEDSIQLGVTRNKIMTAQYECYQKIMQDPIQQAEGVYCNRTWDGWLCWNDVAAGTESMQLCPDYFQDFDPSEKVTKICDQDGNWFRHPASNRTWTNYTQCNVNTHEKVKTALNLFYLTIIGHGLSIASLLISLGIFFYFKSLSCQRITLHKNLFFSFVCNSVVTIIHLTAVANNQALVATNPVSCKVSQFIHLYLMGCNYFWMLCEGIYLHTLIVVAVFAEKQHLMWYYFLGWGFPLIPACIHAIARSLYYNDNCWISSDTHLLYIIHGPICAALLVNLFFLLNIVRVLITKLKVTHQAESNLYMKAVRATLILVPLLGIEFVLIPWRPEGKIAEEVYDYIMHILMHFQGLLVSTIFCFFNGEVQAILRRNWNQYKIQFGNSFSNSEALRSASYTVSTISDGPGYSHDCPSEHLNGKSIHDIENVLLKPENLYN
Sequence of recombinant human CL receptor/RAMP1 (O60894 27-148): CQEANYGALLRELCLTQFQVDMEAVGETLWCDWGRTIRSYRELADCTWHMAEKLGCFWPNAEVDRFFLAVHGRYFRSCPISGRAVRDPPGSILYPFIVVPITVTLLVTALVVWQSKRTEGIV

Structure (SMILES)	pKi
O=C1N(Cc2ccc3nc4c(cc3c2)C[C@@]2(C4)C(=O)Nc3ncccc32)[C@H](c2cc(F)cc(F)c2)CCNC12CCCC2 [Example 16]	9.05
O=C1N(Cc2cnc3cc4c(cc3c2)C[C@@]2(C4)C(=O)Nc3ncccc32)C(c2ccccc2Cl)=NC12CCCC2 [Example 10]	8.89
CC(C)N1C(=O)N(Cc2cnc3cc4c(cc3c2)C[C@@]2(C4)C(=O)Nc3ncccc32)C2(CCCc3ccccc32)C1=O (stereo partly shown) [Example 5]	10.24
CC(C)N1C(=O)N(Cc2cnc3cc4c(cc3c2)C[C@@]2(C4)C(=O)Nc3ncccc32)C(C)(c2ccccc2)C1=O (stereo partly shown) [Example 12]	9.55
O=C1N(Cc2cnc3cc4c(cc3c2)C[C@@]2(C4)C(=O)Nc3ncccc32)[C@H](c2cc(F)cc(F)c2)CNC12CCCC2 [Example 8]	9.85
O=C1N(Cc2cnc3cc4c(cc3c2)C[C@@]2(C4)C(=O)Nc3ncccc32)[C@H](c2cc(F)cc(F)c2)CCC12CCCC2 [Example 9]	9.11
O=C1N(Cc2cnc3cc4c(cc3c2)C[C@@]2(C4)C(=O)Nc3ncccc32)[C@H](c2cc(F)cc(F)c2)CCNC12CCCC2 [Example 15]	9.31
CC(C)N1C(=O)N(Cc2cnc3cc4c(cc3c2)C[C@@]2(C4)C(=O)Nc3ncccc32)C2(CCCCCC2)C1=O [Example 6]	9.47
O=C1NCCN(Cc2cnc3cc4c(cc3c2)C[C@@]2(C4)C(=O)Nc3ncccc32)C1c1ccc(F)cc1 (stereo partly shown) [Example 17]	7.24
CN1C[C@@](C)(c2cc(F)cc(F)c2)N(Cc2cnc3cc4c(cc3c2)C[C@@]2(C4)C(=O)Nc3ncccc32)C(=O)C12CCCC2 [Example 13]	10.21
